Measured values as given in article PMC8534003, “The Chemokine-Based Peptide, CXCL9(74-103), Inhibits Angiogenesis by Blocking Heparan Sulfate Proteoglycan-Mediated Signaling of Multiple Endothelial Growth Factors” (Cancers, 2021).

Key:
[1] = test system: human microvascular endothelial cells (HMVECs); assay: xCELLigence adhesion assay; format: cell-based; conditions: VEGF165 50 ng/mL, peptide 3 µM, 1 h, gelatin coat; n = 2–6
Description: The wells of an E-plate (ACEA Biosciences, Inc.) were washed and coated with 0.1% (v/v) gelatin in phosphate-buffered saline (PBS) at 37 °C for 1 h. Following a washing step, wells were incubated with 0.1% (v/v) bovine serum albumin (BSA) in PBS at 37 °C for 1 h. After washing, 50 µL basal MCDB131 medium was added and the plate was allowed to equilibrate at 37 °C. HMVECs were harvested and seeded at 4 × 10^4 cells/well together with 50 ng/mL VEGF165 with or without 0.03, 0.3 or 3 µM of CXCL9(74-103) or 3 µM of CXCL9(86-103) in 100 µL control medium (vide supra). Real-time changes in electrical impedance depicted as cell indices, as measure for cell adhesion and spreading, were analyzed using the xCELLigence® RTCA DP System. The adhesion of HMVECs was analyzed 1 h after seeding.

[2] = test system: MDA-MB-231 breast cancer xenograft; assay: In vivo MDA-MB-231 breast cancer mouse model; parameters: species or system human tumor cells in SCID mice; conditions: 800 µg s.c. osmotic pump; text says data not shown
Description: Six-to-eight-week-old female SCID mice were s.c. injected with 6 × 10^6 MDA-MB-231 breast tumor cells (American Type Culture Collection, Manassas, VA) in 200 µL PBS. Three days later, mice were anesthetized as described (vide supra), a dorsal incision was made and an ALZET osmotic pump (model 1002, DURECT Corporation) containing 800 µg/100 µL CXCL9(74-103) or CXCL9(86-103) or 100 µL PBS was s.c. implanted, which delivered a continuous dose over the course of two weeks. Three weeks after tumor cell injection, mice were sacrificed. Tumors were isolated, minced and added to 2 mL of tumor cell medium [TCM; 5% (v/v) FCS in RPMI 1640 + Glutamax (Gibco)]. After centrifugation (500 g, room temperature, 5 min), minced tumors were incubated at 37 °C for 30 min in 3 mL of digestion medium [2 mg/mL collagenase D, 0.1 mg/mL DNAse and 5 U/mL dispase (Corning Life Sciences) in TCM]. Subsequently, tumor fragments were further disrupted using a 1 mL syringe and 18G needle, and 2 mL of digestion medium was added for an additional incubation at 37 °C for 15 min. […] After centrifugation (500 g, 4 °C, 5 min), the pellet was resuspended in 500 µL of 2% (v/v) FCS in PBS and the cells were counted. To assess the anti-angiogenic potential of the CXCL9-derived peptides, the population of endothelial cells within the tumor samples was determined via flow cytometry (vide supra).

[3] = reference not given at the value; read-out: KD, heparin binding; cited from earlier work
Source text: In our present study, we wanted to explore the potential of CXCL9(74-103), a high affinity GAG-binding peptide, to interfere with angiogenesis by targeting growth factor-induced signaling cascades and associated processes. […] The obtained KD value lies within the range of the concentrations that were applied in the different in vivo and in vitro assays reported here. FGF-2-mediated proliferation, chemotaxis and sprouting in vitro was diminished by CXCL9(74-103). Also in vivo, CXCL9(74-103) treatment attenuated FGF-2-mediated neovascularization in the Matrigel plug assay. The inhibitory mechanism responsible for countering FGF-2 could be that (1) by direct interaction with FGF-2, CXCL9(74-103) can t ...

For KKVLKVRKSQRSRQKKTT [CXCL9(86-103)], the “VEGF165-induced endothelial cell adhesion” value [1] is listed as “No effect on VEGF-induced adhesion”, the tumor-associated angiogenesis [2] is listed as “no anti-angiogenic activity” and the Kd [3] is listed as 0.82 µM.
